Source: PubChem BioAssay (NCI)
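The compound was tested at five concentrations on cells cultured in 96-well plates, with a 48-hour exposure period. Here, GI50 denotes the concentration required for 50% inhibition of growth. Definition used: TGI = concentration required for complete inhibition of growth.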

What was measured:
Assay in all cases: NCI anticancer screen, dose series, 48 h
[1] = test system: HL-60(TB) leukemia
[2] = test system: HOP-62 NSCLC
[3] = test system: A549 NSCLC
[4] = test system: A498 renal
[5] = test system: SNB-19 CNS
[6] = test system: SK-OV-3 ovarian
[7] = test system: MDA-MB-435
[8] = test system: 786-0 renal
[9] = test system: SW-620 colon
[10] = test system: OVCAR-8 ovarian
[11] = test system: MDA-MB-231 breast
[12] = test system: IGROV1 ovarian
[13] = test system: DU-145 prostate
[14] = test system: ACHN renal
[15] = test system: UACC-62 melanoma
[16] = test system: COLO 205 colon
[17] = test system: SK-MEL-2 melanoma
[18] = test system: HT29 colon
[19] = test system: HCT-15 colon
[20] = test system: RXF 393 renal
[21] = test system: MCF7 breast
[22] = test system: SF-268 CNS
[23] = test system: OVCAR-5 ovarian
[24] = test system: PC-3 prostate
[25] = test system: BT-549 breast
[26] = test system: OVCAR-4 ovarian
[27] = test system: HOP-92 NSCLC
[28] = test system: U251 CNS
[29] = test system: SK-MEL-5 melanoma
[30] = test system: NCI-H226 lung
[31] = test system: TK-10 renal
[32] = test system: T-47D breast
[33] = test system: RPMI-8226 leukemia
[34] = test system: HCT-116 colon
[35] = test system: NCI-H23 lung
[36] = test system: SNB-75 CNS
[37] = test system: CCRF-CEM leukemia
[38] = test system: SF-539 CNS
[39] = test system: SN12C renal
[40] = test system: UACC-257 melanoma
[41] = test system: UO-31 renal
[42] = test system: NCI/ADR-RES ovarian
[43] = test system: SK-MEL-28 melanoma
[44] = test system: K-562 leukemia
[45] = test system: M14 melanoma
[46] = test system: NCI-H460 lung
[47] = test system: LOX IMVI melanoma
[48] = test system: OVCAR-3 ovarian
[49] = test system: HS 578T breast
[50] = test system: KM12 colon
[51] = test system: CAKI-1 renal
[52] = test system: SR leukemia
[53] = test system: MOLT-4 leukemia
[54] = test system: MALME-3M melanoma
[55] = test system: NCI-H522 lung
[56] = test system: SF-295 CNS
[57] = test system: EKVX NSCLC
[58] = test system: HCC-2998 colon

## COc1ccc(/C=C2\N=C(SC)N(C)C2=O)cc1
[1]
  TGI: > 100 µM
[2]
  TGI: > 100 µM
[3]
  TGI: > 100 µM
[4]
  TGI: > 100 µM
[5]
  TGI: > 100 µM
[6]
  TGI: > 100 µM
[7]
  TGI: > 100 µM
[8]
  TGI: > 100 µM
[9]
  TGI: > 100 µM
[10]
  TGI: > 100 µM
[11]
  TGI: > 100 µM
[12]
  TGI: > 100 µM
[13]
  TGI: > 100 µM
[14]
  TGI: > 100 µM
[15]
  TGI: > 100 µM
[16]
  TGI: > 100 µM
[17]
  TGI: > 100 µM
[18]
  TGI: > 100 µM
[19]
  TGI: > 100 µM
[20]
  TGI: > 100 µM
[21]
  TGI: > 100 µM
[22]
  TGI: > 100 µM
[23]
  TGI: > 100 µM
[24]
  TGI: > 100 µM
[25]
  TGI: > 100 µM
[26]
  TGI: > 100 µM
[27]
  TGI: > 100 µM
[28]
  TGI: > 100 µM
[29]
  TGI: > 100 µM
[30]
  TGI: > 100 µM
[31]
  TGI: > 100 µM
[32]
  TGI: > 100 µM
[33]
  TGI: > 100 µM
[34]
  TGI: > 100 µM
[35]
  TGI: > 100 µM
[36]
  TGI: > 100 µM
[37]
  TGI: > 100 µM
[38]
  TGI: > 100 µM
[39]
  TGI: > 100 µM
[40]
  TGI: > 100 µM
[41]
  TGI: > 100 µM
[42]
  TGI: > 100 µM
[43]
  TGI: > 100 µM
[44]
  TGI: > 100 µM
[45]
  TGI: > 100 µM
[46]
  TGI: > 100 µM
[47]
  TGI: > 100 µM
[48]
  TGI: > 100 µM
[49]
  TGI: 90.4 µM

## N#Cc1ccc(Oc2nc3ccccc3nc2C(=O)O)cc1
[1]
  TGI: > 100 µM
[50]
  TGI: > 100 µM
[2]
  TGI: > 100 µM
[3]
  TGI: > 100 µM
[51]
  TGI: > 100 µM
[4]
  TGI: > 100 µM
[5]
  TGI: > 100 µM
[6]
  TGI: > 100 µM
[7]
  TGI: > 100 µM
[8]
  TGI: > 100 µM
[9]
  TGI: > 100 µM
[10]
  TGI: > 100 µM
[11]
  TGI: > 100 µM
[12]
  TGI: > 100 µM
[13]
  TGI: > 100 µM
[14]
  TGI: > 100 µM
[15]
  TGI: > 100 µM
[16]
  TGI: > 100 µM
[17]
  TGI: > 100 µM
[18]
  TGI: > 100 µM
[19]
  TGI: > 100 µM
[20]
  TGI: > 100 µM
[52]
  TGI: > 100 µM
[22]
  TGI: > 100 µM
[23]
  TGI: > 100 µM
[24]
  TGI: > 100 µM
[53]
  TGI: > 100 µM
[25]
  TGI: > 100 µM
[26]
  TGI: > 100 µM
[27]
  TGI: > 100 µM
[54]
  TGI: > 100 µM
[55]
  TGI: > 100 µM
[28]
  TGI: > 100 µM
[29]
  TGI: > 100 µM
[30]
  TGI: > 100 µM
[31]
  TGI: > 100 µM
[32]
  TGI: > 100 µM
[33]
  TGI: > 100 µM
[34]
  TGI: > 100 µM
[35]
  TGI: > 100 µM
[36]
  TGI: > 100 µM
[37]
  TGI: > 100 µM
[56]
  TGI: > 100 µM
[40]
  TGI: > 100 µM
[57]
  TGI: > 100 µM
[41]
  TGI: > 100 µM
[42]
  TGI: > 100 µM
[43]
  TGI: > 100 µM
[44]
  TGI: > 100 µM
[45]
  TGI: > 100 µM
[58]
  TGI: > 100 µM
[46]
  TGI: > 100 µM
[47]
  TGI: > 100 µM
[48]
  TGI: > 100 µM
[49]
  TGI: > 100 µM

## CN1C(=O)/C(=C/c2c(Cl)[nH]c3ccccc23)c2ccccc21
[1]
  GI50: 32.6 µM
  TGI: 93.4 µM
[50]
  GI50: 2.05 µM
  TGI: 10.1 µM
[2]
  GI50: 31.3 µM
  TGI: > 100 µM
[3]
  GI50: 79.7 µM
  TGI: > 100 µM
[51]
  GI50: 29.8 µM
  TGI: 89.5 µM
[5]
  GI50: 35.4 µM
  TGI: > 100 µM
[6]
  GI50: 25.8 µM
  TGI: 67.1 µM
[7]
  GI50: 23.8 µM
  TGI: 59.9 µM
[8]
  GI50: 32.4 µM
  TGI: > 100 µM
[9]
  GI50: 35.8 µM
  TGI: > 100 µM
[10]
  GI50: 63.4 µM
  TGI: > 100 µM
[11]
  GI50: 39 µM
  TGI: > 100 µM
[12]
  GI50: 37.6 µM
  TGI: > 100 µM
[13]
  GI50: 89.5 µM
  TGI: > 100 µM
[14]
  GI50: 32.9 µM
  TGI: > 100 µM
[15]
  GI50: 37.4 µM
  TGI: > 100 µM
[16]
  GI50: 18.1 µM
  TGI: 34.9 µM
[17]
  GI50: 45.1 µM
  TGI: > 100 µM
[18]
  GI50: 25.5 µM
  TGI: 98.5 µM
[19]
  GI50: 34.1 µM
  TGI: > 100 µM
[20]
  GI50: 53.4 µM
  TGI: > 100 µM
[21]
  GI50: 53.7 µM
  TGI: > 100 µM
[22]
  GI50: 66.7 µM
  TGI: > 100 µM
[23]
  GI50: 55.9 µM
  TGI: > 100 µM
[24]
  GI50: 29.5 µM
  TGI: > 100 µM
[53]
  GI50: 41.8 µM
  TGI: > 100 µM
[25]
  GI50: 37.4 µM
  TGI: 94.3 µM
[26]
  GI50: 52.3 µM
  TGI: > 100 µM
[27]
  GI50: 37 µM
  TGI: > 100 µM
[54]
  GI50: 25.5 µM
  TGI: > 100 µM
[55]
  GI50: 21.4 µM
  TGI: 80.1 µM
[28]
  GI50: 40.4 µM
  TGI: > 100 µM
[29]
  GI50: 14.6 µM
  TGI: 51.2 µM
[30]
  GI50: 48.3 µM
  TGI: > 100 µM
[31]
  GI50: 14 µM
  TGI: 46.2 µM
[32]
  GI50: 22.5 µM
  TGI: 71.2 µM
[33]
  GI50: 24.1 µM
  TGI: > 100 µM
[34]
  GI50: 25.9 µM
  TGI: 87.8 µM
[35]
  GI50: 38.2 µM
  TGI: > 100 µM
[37]
  GI50: 29 µM
  TGI: > 100 µM
[38]
  GI50: 33 µM
  TGI: 75.6 µM
[56]
  GI50: 25.9 µM
  TGI: 85.5 µM
[39]
  GI50: 77.2 µM
  TGI: > 100 µM
[40]
  GI50: > 100 µM
  TGI: > 100 µM
[57]
  GI50: 75.2 µM
  TGI: > 100 µM
[41]
  GI50: 37.1 µM
  TGI: > 100 µM
[42]
  GI50: 25.5 µM
  TGI: 61.2 µM
[43]
  GI50: 35 µM
  TGI: > 100 µM
[45]
  GI50: 19.8 µM
  TGI: 65.8 µM
[46]
  GI50: 46.7 µM
  TGI: > 100 µM
[47]
  GI50: 43.3 µM
  TGI: > 100 µM
[48]
  GI50: 22.6 µM
  TGI: 58.7 µM
[49]
  GI50: 28.9 µM
  TGI: 72.9 µM
